Where a SMILES comes first, the peptide text is derived from it. Bridges are numbered along the chain shown (N, C = ends). [ ]: non-standard residue; d: D form. The star is where a group is joined. hPhe(3-Cl-4-CF3) = N[C@@H](CCc1ccc(C(F)(F)F)c(Cl)c1)C(=O)O; NMePhe(4-Me) = CN[C@@H](Cc1ccc(C)cc1)C(=O)O; NMeGly(cPent) = CN[C@H](C(=O)O)C1CCCC1; NMeD = CN[C@@H](CC(=O)O)C(=O)O; NMeL = CN[C@@H](CC(C)C)C(=O)O; Morpholide = C1CN(*)CCO1; NMeA = CN[C@@H](C)C(=O)O; Ac5c = NC1(C(=O)O)CCCC1; Aze = O=C(O)[C@@H]1CCN1; Sar = CNCC(=O)O
Assays:
[1] = target: GDP-bound NRAS wild-type protein (Homo sapiens, UniProt P01111); assay: Binding to NRAS by surface plasmon resonance (SPR), Single Cycle Kinetics; details: for NRAS/KRAS (ratio of KD for GDP-bound NRAS wild-type to KD for KRAS) / NRAS/KRAS (ratio of KD value with respect to NRAS to KD value with respect to KRAS): SPR; for NRAS/KRAS (ratio of KD value with respect to NRAS to KD value with respect to KRAS): GDP-bound NRAS wild-type vs GDP-bound KRAS wild-type; for NRAS/KRAS (ratio of KD value with respect to GDP-bound NRAS wild-type protein to KD value with respect to KRAS): class symbols
Sequence of GDP-bound NRAS wild-type protein (P01111 whole entry): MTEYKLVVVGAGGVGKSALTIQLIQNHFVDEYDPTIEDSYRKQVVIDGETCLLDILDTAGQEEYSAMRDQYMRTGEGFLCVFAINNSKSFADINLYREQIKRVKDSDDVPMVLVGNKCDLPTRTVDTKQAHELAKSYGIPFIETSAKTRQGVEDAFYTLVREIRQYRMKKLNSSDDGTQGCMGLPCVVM

[2] = target: GDP-bound HRAS wild-type protein (Homo sapiens, UniProt P01112); assay: Binding to HRAS by surface plasmon resonance (SPR), Single Cycle Kinetics
Sequence of GDP-bound HRAS wild-type protein (P01112 whole entry): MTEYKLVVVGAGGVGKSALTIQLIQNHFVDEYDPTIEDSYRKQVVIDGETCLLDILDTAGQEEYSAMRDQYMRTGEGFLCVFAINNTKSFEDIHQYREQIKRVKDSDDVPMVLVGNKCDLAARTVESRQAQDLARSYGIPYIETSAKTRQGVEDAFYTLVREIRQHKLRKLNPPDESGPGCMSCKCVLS

[3] = KD ratio, GDP-bound HRAS wild-type vs GDP-bound KRAS wild-type, SPR
[4] = SPR, GDP-bound HRAS wild-type vs GDP-bound KRAS wild-type
[5] = SPR, GDP-bound wild-type proteins

CCCN1C(=O)[C@@H]2CCN2C(=O)[C@H](C)N(C)C(=O)[C@H]([C@@H](C)CC)NC(=O)[C@H](CC(C)C)N(C)C(=O)C[C@@H](C(=O)N2CCOCC2)N(C)C(=O)[C@H](C2CCCC2)N(C)C(=O)C2(CCCC2)NC(=O)[C@@H]2C[C@H](O)CN2C(=O)[C@H](CCc2ccc(C(F)(F)F)c(Cl)c2)NC(=O)CN(C)C(=O)[C@@H]1Cc1ccc(C(F)(F)F)cc1 (stereo in doubt) [PP0238]
NRAS/KRAS (ratio of KD for GDP-bound NRAS wild-type to KD for KRAS) [1]: C (A compound having a KD ratio of 0.1 or more and less than 3 is denoted as C)
HRAS/KRAS (ratio of KD for GDP-bound HRAS wild-type to KD for KRAS) ([2]; SPR): C (A compound having a KD ratio of 0.1 or more and less than 3 is denoted as C)

CC[C@H](C)[C@@H]1NC(=O)[C@H](CC(C)C)N(C)C(=O)C[C@@H](C(=O)N2CCOCC2)N(C)C(=O)[C@H](C2CCCC2)N(C)C(=O)C2(CCCC2)NC(=O)[C@@H]2CCCN2C(=O)[C@H](CCc2ccc(C(F)(F)F)c(Cl)c2)NC(=O)CN(C)C(=O)[C@H](Cc2ccc(C(F)(F)F)cc2)N2CCCCC[C@@H](C2=O)N(C)C(=O)CN(C)C1=O (stereo in doubt) [PP0319]
NRAS/KRAS (ratio of KD for GDP-bound NRAS wild-type to KD for KRAS) [1]: B (a compound having 3 or more and less than 10 is denoted as B)
HRAS/KRAS (ratio of KD for GDP-bound HRAS wild-type to KD for KRAS) ([2]; SPR): B (a compound having 3 or more and less than 10 is denoted as B)

CCO[C@@H]1C[C@H]2C(=O)NC3(CCC3)C(=O)N(C)[C@@H](C3CCCC3)C(=O)N(C)[C@H](C(=O)N(C)C)CC(=O)N(C)[C@@H](CC)C(=O)N[C@@H]([C@@H](C)CC)C(=O)N(C)CC(=O)N(C)[C@H]3CCCCCN(C3=O)[C@@H](Cc3ccc(C(F)(F)F)cc3)C(=O)N(C)CC(=O)N[C@@H](CCc3ccc(C(F)(F)F)c(C)c3)C(=O)N2C1 (stereo in doubt) [PP0883]
NRAS/KRAS (ratio of KD value with respect to NRAS to KD value with respect to KRAS) ([1]; KD ratio): B (a compound having 3 or more and less than 10 is denoted as B)
HRAS/KRAS (ratio of KD value with respect to HRAS to KD value with respect to KRAS) [2, 3]: B (a compound having 3 or more and less than 10 is denoted as B)

CCC(CC)[C@H]1C(=O)N(C)[C@H](C(=O)N(C)C)CC(=O)N(C)[C@@H](COC)C(=O)N[C@@H]([C@@H](C)CC)C(=O)N(C2CC2)CC(=O)N(C)[C@H]2C/C=C\CCN(C2=O)[C@@H](Cc2ccc(C)cc2)C(=O)N(C)CC(=O)N[C@@H](CCc2ccc(Cl)c(Cl)c2)C(=O)N2C[C@H](OC(C)C)C[C@H]2C(=O)NC2(CC(C)(C)C2)C(=O)N1C (stereo in doubt) [PP2509]
NRAS/KRAS (ratio of KD value with respect to NRAS to KD value with respect to KRAS) [1]: AA (a compound having 20 or more is denoted as AA)
HRAS/KRAS (ratio of KD value with respect to HRAS to KD value with respect to KRAS) [2, 4]: A (a compound having 10 or more and less than 20 is denoted as A)

CCC[C@H]1C(=O)N[C@H]([C@@H](C)CC)C(=O)N2C[C@@H](OC)C[C@H]2C(=O)N(C)[C@H]2C/C=C\CCN(C2=O)[C@@H](Cc2ccc(C)cc2)C(=O)N(C)CC(=O)N[C@@H](CCc2ccc(C(F)(F)F)c(Cl)c2)C(=O)N2C[C@H](OCC)C[C@H]2C(=O)NC2(CCC2)C(=O)N(C)[C@@H](C2CCCC2)C(=O)N(C)[C@H](C(=O)N(C)C)CC(=O)N1C (stereo in doubt) [PP2552]
NRAS/KRAS (ratio of KD value with respect to GDP-bound NRAS wild-type protein to KD value with respect to KRAS) [1]: A (a compound having 10 or more and less than 20 is denoted as A)
HRAS/KRAS (ratio of KD value with respect to GDP-bound HRAS wild-type protein to KD value with respect to KRAS) ([2]; class symbols): B (a compound having 3 or more and less than 10 is denoted as B)

CCOC[C@H]1C(=O)N[C@@H]([C@@H](C)CC)C(=O)N(C2CC2)CC(=O)N(C)[C@@H]2C/C=C\CCN(C2=O)[C@@H](Cc2ccc(C)cc2)C(=O)N(C)CC(=O)N[C@@H](CCc2ccc(C(F)(F)F)c(OC)c2)C(=O)N2C[C@H](OCC)C[C@@H]2C(=O)NC2(CC(C)(C)C2)C(=O)N(C)[C@H](CC2CCC2)C(=O)N(C)[C@H](C(=O)N(C)C)CC(=O)N1C (stereo in doubt) [PP2760]
NRAS/KRAS (ratio of KD value with respect to GDP-bound NRAS wild-type protein to KD value with respect to KRAS) [1]: A (a compound having 10 or more and less than 20 is denoted as A)
HRAS/KRAS (ratio of KD value with respect to GDP-bound HRAS wild-type protein to KD value with respect to KRAS) ([2]; class symbols): B (a compound having 3 or more and less than 10 is denoted as B)

CCC[C@H]1C(=O)N[C@H]([C@@H](C)CC)C(=O)N(C)CC(=O)N(C)[C@H]2C/C=C\CCN(C2=O)[C@@H](Cc2ccc(C)cc2)C(=O)N(C)CC(=O)N[C@@H](CCc2cc(F)c(C(F)F)c(F)c2)C(=O)N2C[C@H](OCC)C[C@H]2C(=O)NC2(CC(C)(C)C2)C(=O)N(C)[C@@H](C(CC)CC)C(=O)N(C)[C@H](C(=O)N(C)C)CC(=O)N1C (stereo in doubt) [PP2783]
NRAS/KRAS (ratio of KD value with respect to GDP-bound NRAS wild-type protein to KD value with respect to KRAS) [1]: A (a compound having 10 or more and less than 20 is denoted as A)
HRAS/KRAS (ratio of KD value with respect to GDP-bound HRAS wild-type protein to KD value with respect to KRAS) ([2]; class symbols): A (a compound having 10 or more and less than 20 is denoted as A)

CC[C@H](C)[C@@H]1NC(=O)[C@H](CC(C)C)N(C)C(=O)C[C@@H](C(=O)N2CCOCC2)N(C)C(=O)[C@H](C2CCCC2)N(C)C(=O)C2(CCCC2)NC(=O)[C@@H]2CCCN2C(=O)[C@H](CCc2ccc(C(F)(F)F)c(Cl)c2)NC(=O)CN(C)C(=O)[C@H](Cc2ccc(C)cc2)N(C)C(=O)[C@@H]2CCN2C(=O)[C@H](C)N(C)C1=O [PP0001] ([NMeL]I[NMeA][Aze][NMePhe(4-Me)][Sar][hPhe(3-Cl-4-CF3)]P[Ac5c][NMeGly(cPent)][NMeD]-Morpholide; lactam N-11)
NRAS/KRAS (ratio of KD for GDP-bound NRAS wild-type to KD for KRAS) [1]: C (A compound having a KD ratio of 0.1 or more and less than 3 is denoted as C)
HRAS/KRAS (ratio of KD for GDP-bound HRAS wild-type to KD for KRAS) ([2]; SPR): C (A compound having a KD ratio of 0.1 or more and less than 3 is denoted as C)

CCO[C@@H]1C[C@H]2C(=O)NC3(CC(C)(C)C3)C(=O)N(C)[C@@H](C3CCCC3)C(=O)N(C)[C@H](C(=O)N(C)CC)CC(=O)N(C)[C@@H](C3CCC3)C(=O)N[C@@H]([C@@H](C)CC)C(=O)N(C)CC(=O)N(C)[C@H]3C/C=C\CCN(C3=O)[C@@H](Cc3ccc(C(F)(F)F)cc3)C(=O)N(C)CC(=O)N[C@@H](CCc3ccc(C(F)(F)F)c(OC)c3)C(=O)N2C1 [PP1985]
HRAS/KRAS (ratio of KD value for HRAS to KD value for KRAS) [2, 3]: B (a compound having 3 or more and less than 10 is denoted as B)

CCC(CC)[C@H]1C(=O)N(C)[C@H](C(=O)N(C)C)CC(=O)N(C)[C@@H](COC)C(=O)N[C@@H]([C@@H](C)CC)C(=O)N(C2CC2)CC(=O)N(C)[C@H]2C/C=C\CCN(C2=O)[C@@H](CC2CCCCC2)C(=O)N(C)CC(=O)N[C@@H](CCc2ccc(Cl)c(Cl)c2)C(=O)N2C[C@H](OC(C)C)C[C@H]2C(=O)NC2(CC(C)(C)C2)C(=O)N1C [PP2517]
HRAS/KRAS (ratio of KD value with respect to HRAS to KD value with respect to KRAS) [2, 4]: A (a compound having 10 or more and less than 20 is denoted as A)

CCC[C@H]1C(=O)N[C@@H](CC(C)C)C(=O)N(C2CC2)CC(=O)N(C)[C@H]2C/C=C\CCN(C2=O)[C@@H](Cc2ccc(C)cc2)C(=O)N(C)CC(=O)N[C@@H](CCc2ccc(C(F)(F)F)c(Cl)c2)C(=O)N2C[C@H](OCC)C[C@H]2C(=O)NC2(CCC2)C(=O)N(C)[C@@H](C2CCCC2)C(=O)N(C)[C@H](C(=O)N(C)C)CC(=O)N1C [PP2543]
HRAS/KRAS (ratio of KD value with respect to GDP-bound HRAS wild-type protein to KD value with respect to KRAS) ([2]; class symbols): B (a compound having 3 or more and less than 10 is denoted as B)

CC[C@H](C)[C@@H]1NC(=O)[C@H](COC)N(C)C(=O)C[C@@H](C(=O)N2CCCCC2)N(C)C(=O)[C@H](C2CCCC2)N(C)C(=O)C2(CC(C)(C)C2)NC(=O)[C@@H]2C[C@@H](OC(C)C)CN2C(=O)[C@H](CCc2cc(F)c(C(F)(F)F)c(F)c2)NC(=O)CN(C)C(=O)[C@H](Cc2ccc(C(F)(F)F)cc2)N2CC/C=C\C[C@@H](C2=O)N(C)C(=O)CN(C)C1=O [PP2663]
HRAS/KRAS (ratio of KD value with respect to GDP-bound HRAS wild-type protein to KD value with respect to KRAS) ([2]; class symbols): A (a compound having 10 or more and less than 20 is denoted as A)

CCC[C@H]1C(=O)N[C@@H]([C@@H](C)CC)C(=O)N(C)CC(=O)N(C)[C@H]2C/C=C\CCN(C2=O)[C@@H](Cc2ccc(C)cc2)C(=O)N(C)CC(=O)N[C@@H](CCc2ccc(Cl)c(OC)c2)C(=O)N2C[C@H](OCC)C[C@H]2C(=O)NC2(CC(C)(C)C2)C(=O)N(C)[C@@H](C(CC)CC)C(=O)N(C)[C@H](C(=O)N(C)C)CC(=O)N1C [PP2791]
HRAS/KRAS (ratio of KD value with respect to GDP-bound HRAS wild-type protein to KD value with respect to KRAS) ([2]; class symbols): A (a compound having 10 or more and less than 20 is denoted as A)

CCO[C@@H]1C[C@H]2C(=O)NC3(CC(C)(C)C3)C(=O)N(C)[C@@H](C3CCCC3)C(=O)N(C)[C@H](C(=O)N(C)C)CC(=O)N(C)[C@H]3CCCCCCc4ccc(cc4)C[C@@H](C(=O)N(C)CC(=O)N[C@@H](CCc4ccc(C(F)(F)F)c(OC)c4)C(=O)N2C1)N1CC/C=C\C[C@@H](C1=O)N(C)C(=O)CN(C1CC1)C(=O)[C@H]([C@@H](C)CC)NC3=O [PP3070]
HRAS/KRAS (ratio of KD value with respect to GDP-bound HRAS wild-type protein to KD value with respect to KRAS) [2, 5]: B (a compound having 3 or more and less than 10 is denoted as B)

CCC[C@H]1C(=O)N[C@@H]([C@@H](C)CC)C(=O)N(C)CC(=O)N(C)[C@H]2C/C=C\CCN(C2=O)[C@@H](Cc2ccc(C(F)(F)F)cc2)C(=O)N(C)CC(=O)N[C@@H](CCc2ccc(C(F)(F)F)c(OC)c2)C(=O)N2C[C@H](OCC)C[C@H]2C(=O)N(C)C2(CCC2)C(=O)N(C)[C@@H](C2CCCC2)C(=O)N(C)[C@H](C(=O)N2CCCCC2)CC(=O)N1C [PP3103, (2S,8S,12R,14S,20S,23S,27S,30S,36S,38Z)-20-cyclopentyl-12-ethoxy-8-[2-[3-methoxy-4-(trifluoromethyl)phenyl]ethyl]-4,16,19,22,26,32,35-heptamethyl-30-[(1S)-1-methylpropyl]-23-(piperidine-1-carbonyl)-27-propyl-2-[[4-(trifluoromethyl)phenyl]methyl]spiro[1,4,7,10,16,19,22,26,29,32,35-undecazatricyclo[34.5.1.0^10,14]dotetracont-38-ene-17,1′-cyclobutane]-3,6,9,15,18,21,25,28,31,34,42-undecone]
HRAS/KRAS (ratio of KD value with respect to GDP-bound HRAS wild-type protein to KD value with respect to KRAS) [2, 5]: A (a compound having 10 or more and less than 20 is denoted as A)
